Measured values: patent US9346761B2, “Arginine methyltransferase inhibitors and uses thereof” (Epizyme, Inc., priority 2013, dated 2016)
Counter-ions that a name gives are not always drawn.

How the values were obtained:
[1] = target: T1, Full-length human PRMT1 isoform 1 (Homo sapiens, UniProt Q99873); assay: PRMT1 biochemical assay (3H-SAM Flashplate, peptide substrate)
T1 construct: GST-tagged PRMT1; made in house; host or cells: High Five insect cells (baculovirus, pFastBacI)
Outline: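 GST-tagged full-length PRMT1 from baculovirus-infected cells, preincubated 30 min at room temperature with compound in 20 mM Bicine pH 7.6, TCEP, BSG, Tween 20. Reaction started with 3H-SAM plus biotinylated peptide, stopped with 300 uM unlabelled SAM. Streptavidin Flashplate capture and scintillation counting; % inhibition curve-fitted for IC50.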

Full-length human PRMT6 = target: T2, Full-length human PRMT6 (Homo sapiens, UniProt Q96LA8); assay: PRMT6 biochemical assay (3H-SAM Flashplate, peptide substrate)
T2 construct: Flag-PRMT6-His was eluted with 200 ug/ml FLAG peptide in the same buffer; made in house; host or cells: HEK 293F cells (BacMam virus, pFastBacMam)
T2 sequence (Q96LA8 with tags, fused parts or gaps): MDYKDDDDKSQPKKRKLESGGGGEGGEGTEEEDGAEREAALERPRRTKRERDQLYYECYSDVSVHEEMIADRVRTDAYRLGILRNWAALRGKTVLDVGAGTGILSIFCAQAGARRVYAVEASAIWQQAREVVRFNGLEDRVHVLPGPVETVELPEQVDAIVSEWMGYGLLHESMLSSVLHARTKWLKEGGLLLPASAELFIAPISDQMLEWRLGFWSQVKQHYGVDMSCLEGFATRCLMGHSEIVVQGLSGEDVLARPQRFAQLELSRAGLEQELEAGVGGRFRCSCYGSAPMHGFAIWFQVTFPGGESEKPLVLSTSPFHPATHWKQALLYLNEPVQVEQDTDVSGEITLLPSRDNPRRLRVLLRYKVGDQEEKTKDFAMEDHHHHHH
Outline: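 Flag-PRMT6-His from baculovirus-infected cells, preincubated with compound 30 min at room temperature, then SAM/3H-SAM and biotinylated H4 36-50 peptide added; 20 mM Bicine pH 7.6, TCEP, BSG, Tween 20. Quenched with cold SAM, captured on streptavidin Flashplates; % inhibition from SAH/DMSO controls, 3- or 4-parameter IC50 fit.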

T1 sequence (Q99873 with tags, fused parts or gaps): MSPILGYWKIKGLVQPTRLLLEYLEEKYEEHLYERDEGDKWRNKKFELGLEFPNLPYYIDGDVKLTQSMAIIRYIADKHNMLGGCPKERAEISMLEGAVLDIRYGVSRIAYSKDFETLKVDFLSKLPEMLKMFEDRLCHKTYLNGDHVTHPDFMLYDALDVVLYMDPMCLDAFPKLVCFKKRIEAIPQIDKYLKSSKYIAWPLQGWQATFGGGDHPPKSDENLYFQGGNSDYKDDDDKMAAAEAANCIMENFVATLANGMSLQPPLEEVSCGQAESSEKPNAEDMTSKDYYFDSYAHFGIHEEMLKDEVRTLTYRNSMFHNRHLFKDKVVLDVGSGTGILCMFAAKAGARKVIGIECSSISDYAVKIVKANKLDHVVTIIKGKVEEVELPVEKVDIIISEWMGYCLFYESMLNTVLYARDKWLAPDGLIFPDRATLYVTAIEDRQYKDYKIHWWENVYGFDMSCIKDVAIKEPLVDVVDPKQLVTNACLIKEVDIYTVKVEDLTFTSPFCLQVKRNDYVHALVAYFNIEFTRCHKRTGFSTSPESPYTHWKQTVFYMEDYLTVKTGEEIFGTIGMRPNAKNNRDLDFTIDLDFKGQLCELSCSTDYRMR

Structure (SMILES) | IC50 [1] [nM] | IC50 (Full-length human PRMT6) [nM]
CNCCN(C)Cc1cn(CC(=O)OC)nc1-c1ccc(OC(C)C)cc1 [Compound 248] | 101 to 1000 | 101 to 1000
CNCCN(C)Cc1cnn(CC(=O)OC)c1-c1ccc(OC(C)C)cc1 [Compound 249] | 101 to 1000 | 101 to 1000
CNCCN(C)Cc1cn(CC(=O)O)nc1-c1ccc(OC(C)C)cc1 [Compound 250] | 101 to 1000 | 3010 to 10000
CNCCN(C)Cc1cn(CC(N)=O)nc1-c1ccc(OC(C)C)cc1 [Compound 251] | 101 to 1000 | 1010 to 3000
CCn1ncc(CN(C)CCNC)c1-c1ccc(OC(C)C)cc1 [Compound 252] | < 100 | 101 to 1000
CNCCN(C)Cc1cn(CCOC)nc1-c1ccc(OC(C)C)cc1 [Compound 253, N1-((3-(4-isopropoxyphenyl)-1-(2-methoxyethyl)-1H-pyrazol-4-yl)methyl)-N1,N2-dimethylethane-1,2-diamine hydrochloride] | 101 to 1000 | 101 to 1000
CNCCN(C)Cc1cn(C2CCC2)nc1-c1ccc(OC(C)C)cc1 [Compound 254, N1-((1-cyclobutyl-3-(4-isopropoxyphenyl)-1H-pyrazol-4-yl)methyl)-N1,N2-dimethylethane-1,2-diamine hydrochloride] | < 100 | 101 to 1000
CNCCN(C)Cc1cnn(C2CCCC2)c1-c1ccc(OC(C)C)cc1 [Compound 255] | < 100 | < 100
CNCCN(C)Cc1cn(C2CCCCC2)nc1-c1ccc(OC(C)C)cc1 [Compound 256] | 101 to 1000 | 101 to 1000
C=C(C)C(=O)Nc1cccc(-c2[nH]ncc2CN(C)CCNC)c1 [Compound 257] | 101 to 1000 | 101 to 1000
C=CC(=O)Nc1cccc(-c2[nH]ncc2CN(C)CCNC)c1 [Compound 258] | < 100 | 101 to 1000
